Consider ten molecules from ChEMBL document CHEMBL1149871, “Structure and conformational dynamics of trichothecene mycotoxins” (J Nat Prod, 2008).

For data set [1], the system named is Mus musculus. The data set can be described thus: Toxicity in ip dosed mouse relative to roridin A. It counts as organism-based. The note with it: in vivo.
Data set [2] relates to K562. Description: Cytotoxicity against human K562 cells by MTT assay. It counts as functional, cell-based.
Data set [3] can be described thus: Toxicity in mouse CD4+ T cells assessed as induction of IL5 at 1.0 ng/ml. The class given is cell-based. The note with it: t-cell.
Data set [4] in a line: Toxicity in mouse CD4+ T cells assessed as induction of IL5 at 0.05 ng/ml. The class given is cell-based. The conditions noted are these: t-cell.
Data set [5] in a line: Toxicity in ip dosed mouse. The conditions noted are these: in vivo. It counts as organism-based.
A short description of data set [6]: Toxicity in mouse CD4+ T cells assessed as induction of IL5 at 100 ng/ml. It counts as cell-based. The conditions noted are these: t-cell.
Data set [7] in a line: Toxicity in mouse CD4+ T cells assessed as induction of IL5 at 500 ng/ml. The note with it: t-cell. The class given is cell-based.
Data set [8] in a line: Toxicity in mouse CD4+ T cells assessed as induction of IL5 at 1000 ng/ml. The class given is cell-based. The note with it: t-cell.

With `CC(=O)OC[C@]12C[C@H](OC(=O)CC(C)C)C(C)=C[C@H]1O[C@@H]1[C@H](O)[C@@H](OC(C)=O)[C@@]2(C)[C@]12CO2` [T-2 TOXIN], the Activity in data set [1] is given as 3; in data set [3], “Toxic”. A half-maximal effect in data set [2] (EC50) was put at 2.1 nM.
Consider `CC1=C[C@H]2O[C@@H]3C[C@H]4OC(=O)/C=C\C=C\C(=O)OCC[C@@H](C)[C@H](O)C(=O)OC[C@@]2(CC1)[C@]4(C)[C@]31CO1` [VERRUCARIN A], for which the Activity entry in data set [4] is on record as “Toxic”; in data set [1], 1.5.
`CC1=C[C@H]2O[C@@H]3[C@H](O)[C@@H](O)[C@](C)([C@@]2(CO)[C@H](O)C1=O)[C@]31CO1` [NIVALENOL] had a median lethal dose (LD50) in data set [5] of 4.1 mg/kg. Besides, in data set [6], the Activity entry is listed as “Toxic”. Also, it took 960 nM to reach a half-maximal effect in data set [2] (EC50).
For `CC(=O)OC[C@]12[C@H](O)C(=O)C(C)=C[C@H]1O[C@@H]1[C@H](O)C[C@@]2(C)[C@]12CO2` [15-ACETYLDEOXYNIVALENOL], in data set [7], the Activity entry was “Toxic”.
`CC(=O)OC[C@]12CCC(C)=C[C@H]1O[C@@H]1[C@H](O)[C@@H](OC(C)=O)[C@@]2(C)[C@]12CO2` [ANGUIDIN] showed an Activity in data set [1] of 23. In data set [2], this molecule returned an EC50 of 2.7 nM.
On to `CC(=O)OC[C@]12C[C@H](O)C(C)=C[C@H]1O[C@@H]1[C@H](O)[C@@H](OC(C)=O)[C@@]2(C)[C@]12CO2` [NEOSOLANIOL], for which the Activity in data set [1] worked out at 0.5. The molecule also came in with an EC50 in data set [2] of 392 nM.
For the molecule `CC(=O)OC[C@]12C[C@H](OC(=O)CC(C)C)C(C)=C[C@H]1O[C@@H]1[C@H](O)[C@@H](O)[C@@]2(C)[C@]12CO2` [HT-2 TOXIN], the Activity in data set [1] is on record as 9. Further, a half-maximal response in data set [2] (EC50) required 47.1 nM.
Consider `CC(=O)O[C@@H]1C[C@]2(C)[C@@]3(CO)[C@H](O)C(=O)C(C)=C[C@H]3O[C@H]1[C@@]21CO1` [3-ACETYLDEOXYNIVALENOL], for which the Activity result in data set [8] was “Toxic”.
In data set [5], `CC1=C[C@H]2O[C@@H]3[C@H](O)C[C@](C)([C@@]2(CO)[C@H](O)C1=O)[C@]31CO1` [DEOXYNIVALENOL] had an LD50 of 70 mg/kg. Besides, the Activity result is reported as “Toxic” in data set [6] and 4 in data set [1]. For the same molecule, the EC50 in data set [2] worked out at 1010 nM.
As to `CC1=C[C@H]2O[C@@H]3C[C@@H]4OC(=O)/C=C/C=C/COCC/C([C@@H](O)[C@H](C)O)=C/C(=O)OC[C@@]2(CC1)[C@]4(C)[C@]31CO1` [SATRATOXIN H], in data set [1], the Activity is reported as 1.
